± gives the standard deviation of the averaged measurements.
Assays:
17-AAG = compound: C=CCNC1=C2C[C@@H](C)C[C@H](OC)[C@H](O)[C@@H](C)/C=C(\C)[C@H](OC(N)=O)[C@@H](OC)/C=C\C=C(/C)C(=O)NC(=CC1=O)C2=O [17-AAG]; assay: surviving fraction relative to DMSO-only wells; higher = less growth inhibition; details: exposure time: 5 days
Procedure, shortened: (§1)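 Lines were retained only if, across three screens, replicate Pearson r was >0.7 and median Z' was >0.3. Viability was measured as CellTiter-Glo luminescence and reported as surviving fraction relative to the median of DMSO-only wells. Readings followed 10 minutes at room temperature, after log-phase tumour cells seeded at 250–500 per well in 384-well plates had been exposed, from 24 hours after seeding, continuously for five days to inhibitors at 0.5, 1, 5, 10, 50, 100, 500 and 1000 nM.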

SALINOMYCIN = compound: CC[C@@H](C(=O)[C@@H](C)[C@@H](O)[C@H](C)[C@@H]1O[C@@H]([C@@H](CC)C(=O)O)CC[C@@H]1C)[C@H]1O[C@]2(C=C[C@@H](O)[C@]3(CC[C@@](C)([C@H]4CC[C@](O)(CC)[C@H](C)O4)O3)O2)[C@H](C)C[C@@H]1C [SALINOMYCIN]; assay: as above; details: exposure time: 5 days
Procedure, shortened: as §1

Test System | surviving fraction (17-AAG; 0.5 nM) | surviving fraction (17-AAG; 1 nM) | surviving fraction (17-AAG; 5 nM) | surviving fraction (17-AAG; 10 nM) | surviving fraction (17-AAG; 50 nM) | surviving fraction (17-AAG; 100 nM) | surviving fraction (17-AAG; 500 nM) | surviving fraction (17-AAG; 1000 nM) | surviving fraction (SALINOMYCIN; 0.5 nM) | surviving fraction (SALINOMYCIN; 1 nM) | surviving fraction (SALINOMYCIN; 5 nM) | surviving fraction (SALINOMYCIN; 10 nM) | surviving fraction (SALINOMYCIN; 50 nM) | surviving fraction (SALINOMYCIN; 100 nM) | surviving fraction (SALINOMYCIN; 500 nM) | surviving fraction (SALINOMYCIN; 1000 nM)
G292 BONE | 0.928 ± 0.035 | 0.934 ± 0.031 | 0.956 ± 0.052 | 0.792 ± 0.018 | 0.295 ± 0.018 | 0.266 ± 0.0069 | 0.0898 ± 0.01 | 0.087 ± 0.004 | 0.971 ± 0.016 | 0.967 ± 0.055 | 1 ± 0.086 | 0.966 ± 0.046 | 0.932 ± 0.017 | 0.828 ± 0.013 | 0.204 ± 0.011 | 0.146 ± 0.0081
HCC38 BREAST | 0.802 ± 0.19 | 0.906 ± 0.26 | 0.293 ± 0.082 | 0.185 ± 0.067 | 0.0753 ± 0.022 | 0.0727 ± 0.0085 | 0.059 ± 0.0092 | 0.0613 ± 0.0025 | 1.26 ± 0.26 | 1.14 ± 0.15 | 1.3 ± 0.19 | 1.26 ± 0.081 | 1.05 ± 0.14 | 0.862 ± 0.2 | 0.415 ± 0.03 | 0.317 ± 0.052
HCC70 BREAST | 1.01 ± 0.09 | 0.971 ± 0.066 | 1.01 ± 0.046 | 0.804 ± 0.0083 | 0.091 ± 0.017 | 0.0907 ± 0.012 | 0.073 ± 0.017 | 0.0667 ± 0.0091 | 0.915 ± 0.055 | 1.011 ± 0.0081 | 1.02 ± 0.035 | 0.973 ± 0.022 | 0.948 ± 0.11 | 0.671 ± 0.061 | 0.251 ± 0.011 | 0.147 ± 0.015
HMLE3 BREAST | 0.875 ± 0.029 | 0.889 ± 0.079 | 0.973 ± 0.037 | 0.925 ± 0.062 | 0.0453 ± 0.0025 | 0.0247 ± 0.0011 | 0.021 ± 0.002 | 0.024 ± 0.001 | 0.898 ± 0.036 | 0.894 ± 0.1 | 1.02 ± 0.028 | 0.926 ± 0.09 | 1.19 ± 0.032 | 0.988 ± 0.028 | 0.056 ± 0.0095 | 0.0347 ± 0.0042
HMT3552 BREAST | 0.913 | 0.915 | 1.15 | 0.904 | 0.087 | 0.064 | 0.056 | 0.062 | 1.07 | 1 | 1.07 | 1.11 | 1.13 | 1.05 | 0.801 | 0.728
HS57T BREAST | 0.973 ± 0.08 | 0.919 ± 0.025 | 0.699 ± 0.064 | 0.263 ± 0.032 | 0.134 ± 0.011 | 0.126 ± 0.0038 | 0.105 ± 0.0035 | 0.106 ± 0.0049 | 0.986 ± 0.077 | 0.949 ± 0.062 | 1.07 ± 0.057 | 1.03 ± 0.042 | 1.03 ± 0.013 | 0.813 ± 0.036 | 0.28 ± 0.02 | 0.158 ± 0.011
HS578T BREAST | 0.904 ± 0.057 | 0.928 ± 0.033 | 0.525 ± 0.1 | 0.409 ± 0.051 | 0.281 ± 0.049 | 0.234 ± 0.022 | 0.213 ± 0.026 | 0.222 ± 0.026 | 0.874 ± 0.12 | 0.894 ± 0.036 | 0.993 ± 0.16 | 1.01 ± 0.11 | 1.05 ± 0.076 | 0.826 ± 0.096 | 0.589 ± 0.033 | 0.526 ± 0.041

Reference: the supplement of paper PMC6045584
